This is an account of results in patent US12065447B2, “Heterocyclic amide for inhibiting RIP1 kinase and uses thereof” (SHANGHAI INSTITUTE OF MATERIA MEDICA, CHINESE ACADEMY OF …, priority 2018, dated 2024).

Data set [1] is described as follows: Study on oral pharmacokinetics in rats. The data set is classed as in vivo. Conditions: rat, plasma, male SD rats, 3 mg/kg by gavage, average; for AUC(0-inf): extrapolated to infinity, read-out: AUCINF_obs; for MRT inf: read-out: Average residence time MRTINF_obs; for half-life: read-out: Half life T1/2 (converted); for Cmax: read-out: Peak plasma concentration Cmax. How it is done: Study on Oral Pharmacokinetics in Rats • 1. […] The pharmacokinetic behaviors of the compounds of the present invention in rats were studied, and the pharmacokinetic properties of the compounds were evaluated. • 2. The test animals are healthy adult male SD rats, 3 in each group. • 3. […] Liquid chromatography tandem mass spectrometry (LC-MS/MS) was used to determine the plasma concentration of test compounds in rat after intragastrical administration of different compounds.

Data set [2] deals with TNFα induced systemic inflammatory response syndrome (SIRS). As to the kind of experiment: TNFα induced C57BL/6 mouse systemic inflammatory response syndrome (SIRS) model (hypothermic shock). The class given is in vivo. The conditions noted are these: mTNFα 5 μg/mouse tail vein, drug by gavage 15 min before modeling. How it is done:
TNFα Induced C57BL/6 Mouse Systemic Inflammatory Response Syndrome (SIRS) Model
Source, stirp and strain: C57BL/6 pure mouse, female, 18-20 g, purchased from Shanghai Lingchang Biotechnology Co., Ltd., license No. SCXK (Shanghai) 2013-0018. The animals were bred in the SPF animal room of Building No. 2 of the Shanghai institute of Materia Medica, and the experimental animal use license number is SYXK (Shanghai) 2013-0049. The animals were bred for at least one week before use at 22±1° C. with a humidity of 55±5% and 12 h light and dark cycle. Both feed and water are freely ingested by the animals after disinfection. All experiments were carried out in strict accordance with the relevant regulations on experimental animals.
2. Test Reagents and Materials: • 1) Recombinant Mouse mTNFα was purchased from Shanghai JIN′AN Biological Company. • 2) Experimental materials: 1.5 mL centrifuge tubes were purchased from Axygen Company, 15 mL and 50 mL centrifuge tubes were purchased from Corning Company; commonly used surgical instruments (ophthalmic scissors, large tweezers, small tweezers, tissue scissors) and 1 mL, 2 mL, and 10 mL disposable plastic dispensers were purchased from Sinopharm Chemical Reagent Co., Ltd.; pipettes of various specifications were purchased from Eppendorf Company; tips of various specifications were purchased from Axygen and Sartoruris Company. • 3) Experimental equipments: the syringe adopts omnican insulin syringes, a disposable syringe adopts sterile insulin syringe with a product number of 9161635, and an outer diameter and length of the needle tube of 0.30*8 mm; the mouse tail vein syringe is model YLS-Q9G purchased from Jinan Yyan Technology Development Co., Ltd.; Laboratory animal rectal temperature measuring instrument was model ALC-ET06 purchased from Shanghai Alcott Biotechnology Co., Ltd.
3. Reagents and Compound Preparation Methods: • 1) Recombinant Mouse mTNFα: mTNFα lyophilized powder was dissolved in PBS to prepare a stock solution of 200 μg/mL, and stored in a refrigerator at −20° C. after sub-packaging. The stock solution was put in a refrigerator at 4° C. overnight to reach dissolution equilibrium when in use. […] The drug concentration was determined comprehensively according to the results of in vitro experiments and the pharmacokinetic properties.
4. […] Therefore, the model with tail vein injection of TNFα was selected as the classic model for an animal level screen of RIP1 inhibitor. • 2) Experimental process: • a) The experimental animals were randomly grouped according to their body weight one day in advance, and there are 8 animals in each group. • b) On the day of the experiment, mTNFα and sterile PBS were diluted according to the above method, sucked into an insulin syringe at 125 μl/piece, that is, 5 μg/mice. • c) The drug was administered 15 min before modeling by gavage at 0.2 mL/mouse. • d) 15 min after administration, the modeling was started by injection of PBS or mTNFα into the tail vein, the injection was conducted according to the above dose. • e) After modeling, the rectal temperature was measured every 1 h and the survival rate was measured.
5. Testing Indicators: • 1) Animal body temperature: The rectal temperature was measured every 1 h after modeling. […]

`Cc1c(C#Cc2cnn(C)c2)sc2c1SC[C@H](NC(=O)c1nnc(Cc3ccccc3)[nH]1)C(=O)N2C` [ZB-R-39]: in data set [1], the AUC(0-t) (commonly exposure summed from dosing to a finite time, without extrapolation to infinity) is 1680 ng·h/mL; the AUC(0-inf) is 1700 ng·h/mL; the MRT inf came to 4.07 h; the half-life is 3.46 h. The Cmax in data set [1] came to 525 ng/mL.
As for `CN1C(=O)[C@@H](NC(=O)c2n[nH]c(Cc3ccccc3)n2)COc2ccc(C#Cc3cccnc3)cc21` [ZB-R-51], in data set [1], the exposure AUC(0-t) turned out to be 4210 ng·h/mL, the AUC(0-inf) is 4290 ng·h/mL, the MRT inf worked out at 2.8 h and the half-life was 1.79 h. Moreover, the Cmax in data set [1] turned out to be 1360 ng/mL.
On to `CN1C(=O)[C@@H](NC(=O)c2n[nH]c(Cc3ccccc3)n2)COc2ccc(C#CC3CCOCC3)cc21` [ZB-R-54], for which, in data set [1], the exposure AUC(0-t) came out at 1240 ng·h/mL, the AUC(0-inf) is 1250 ng·h/mL, the MRT inf amounted to 2 h and the half-life is 1.14 h. In data set [1], the Cmax was determined as 667 ng/mL. In data set [2], this compound displayed a Survival rate of 100%.
With `CN1C(=O)[C@@H](NC(=O)c2n[nH]c(Cc3ccccc3)n2)COc2ccc(C#Cc3ccccn3)cc21` [ZB-R-50], in data set [1], the area under the curve AUC(0-t) is 3110 ng·h/mL, the AUC(0-inf) is 3120 ng·h/mL, the MRT inf came to 2.2 h and the half-life was 1.56 h. Further, the Cmax in data set [1] is 1450 ng/mL. Also, in data set [2], the Survival rate is listed as 100%.
For the compound `CN1C(=O)[C@@H](NC(=O)c2n[nH]c(Cc3ccccc3)n2)COc2ccc(C#CC3CC3)cc21` [ZB-R-55], in data set [1], the AUC(0-t) was 25700 ng·h/mL, the AUC(0-inf) is 26100 ng·h/mL, the MRT inf was 7.23 h and the half-life is 3.71 h. In data set [1], the Cmax turned out to be 2900 ng/mL. In data set [2], this compound yielded a Survival rate of 100%.
Compound `CN1C(=O)[C@@H](NC(=O)c2n[nH]c(Cc3ccccc3)n2)COc2ccccc21` [GSK2982772, reference compound] returned a Survival rate in data set [2] of 100%.
In the case of `CN1C(=O)[C@@H](NC(=O)c2n[nH]c(Cc3ccccc3)n2)COc2ccc(C#Cc3ccncc3)cc21` [ZB-R-52], in data set [1], the AUC(0-t) came out at 1560 ng·h/mL, the AUC(0-inf) is 1560 ng·h/mL, the MRT inf was 1.61 h and the half-life is 0.81 h. In addition, the Cmax in data set [1] was found to be 755 ng/mL.
`CN1C(=O)[C@@H](NC(=O)c2n[nH]c(Cc3ccccc3)n2)COc2ccc(C#Cc3cnn(C)c3)cc21` [ZB-R-53]: in data set [1], the area under the curve AUC(0-t) is 4500 ng·h/mL, the AUC(0-inf) is 4650 ng·h/mL, the MRT inf worked out at 2.41 h and the half-life is 1.54 h. In addition, in data set [1], the Cmax turned out to be 1760 ng/mL. In data set [2], this compound registered a Survival rate of 100%.
